Measured values as given in ChEMBL document CHEMBL1201862, “PubChem BioAssay data set” (2004).
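Cells were grown in 96-well plates and exposed to each compound for 48 hours at five concentrations; endpoints were interpolated linearly between bracketing concentrations, or set to the highest concentration if not reached. GI50 is the concentration that inhibits growth by half.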 Activity calls are given as the source filed them. Rule as the data show it: active = GI50 up to about 1.1 µM and inactive = higher.

How the values were obtained:
Assay in all cases: DTP human tumour cell line panel, 48 h
HCC 2998 = system: HCC 2998
HCT-15 = system: HCT-15
SW-620 = system: SW-620
SK-MEL-28 = system: SK-MEL-28
A498 = system: A498
OVCAR-5 = system: OVCAR-5
OVCAR-3 = system: OVCAR-3
ACHN = system: ACHN
SK-MEL-2 = system: SK-MEL-2
U-251 = system: U-251
SN12C = system: SN12C
CAKI-1 = system: CAKI-1
SNB-75 = system: SNB-75
UO-31 = system: UO-31
MOLT-4 = system: MOLT-4

Measured: GI50

O=C(N/N=C1\C(=O)N(c2nccs2)C(=O)C(=O)C1c1nc2ccccc2s1)c1ccccc1O (configuration not stated)
41.8 µM: HCT-15
inactive: HCC 2998 15 µM | SW-620 47.9 µM | SK-MEL-28 88.1 µM | A498 65.3 µM | OVCAR-5 > 100 µM | OVCAR-3 35.9 µM | ACHN 28.6 µM | SK-MEL-2 > 100 µM | U-251 49.8 µM | SN12C 39.1 µM | CAKI-1 > 100 µM | SNB-75 3.3 µM | UO-31 8.22 µM

Cc1cc(C(O)CCCc2ccccc2)cc(C)c1O (configuration not stated)
inactive: HCC 2998 74.1 µM | SW-620 75.7 µM | SK-MEL-28 34.4 µM | A498 24.5 µM | OVCAR-5 43.9 µM | MOLT-4 19.4 µM | OVCAR-3 31.1 µM | ACHN 24.2 µM | SK-MEL-2 33.8 µM | U-251 45.7 µM | SN12C 41.8 µM | SNB-75 16.4 µM | UO-31 15.4 µM
45.9 µM: HCT-15

CC(=O)OC12/C(=N/O)CCCCCC1c1ccccc12 (configuration not stated)
inactive: SW-620 > 100 µM | SK-MEL-28 > 100 µM | MOLT-4 25.4 µM | ACHN 95.3 µM | SK-MEL-2 > 100 µM | U-251 > 100 µM | SN12C > 100 µM | SNB-75 42.8 µM | UO-31 27.5 µM
> 100 µM: HCT-15

CCOC(=O)c1cn(CC)c2cc3c(cc2c1=O)SCS3
inactive: HCC 2998 > 100 µM | SW-620 > 100 µM | SK-MEL-28 > 100 µM | OVCAR-5 > 100 µM | MOLT-4 > 100 µM | OVCAR-3 > 100 µM | ACHN > 100 µM | SK-MEL-2 > 100 µM | U-251 > 100 µM | SN12C > 100 µM | CAKI-1 > 100 µM | SNB-75 52.2 µM | UO-31 > 100 µM
> 100 µM: HCT-15

CN(C)CCNC(=O)c1cccc2cc3c(Cl)cccc3nc12
1.19 µM: HCT-15
active: SW-620 0.641 µM | MOLT-4 0.22 µM | ACHN 0.413 µM | SN12C 1.07 µM
inactive: HCC 2998 1.27 µM | SK-MEL-28 2.15 µM | A498 1.35 µM | OVCAR-5 2.61 µM | OVCAR-3 1.82 µM | SK-MEL-2 1.75 µM | U-251 1.24 µM | CAKI-1 3.63 µM | SNB-75 1.97 µM | UO-31 2.55 µM

NC(=S)N/N=C(\CCC(=O)Nc1ccccc1[N+](=O)[O-])CC(=O)c1ccco1
> 100 µM: HCT-15
inactive: HCC 2998 > 100 µM | SW-620 > 100 µM | SK-MEL-28 > 100 µM | A498 49.3 µM | OVCAR-5 > 100 µM | MOLT-4 > 100 µM | OVCAR-3 > 100 µM | ACHN > 100 µM | SK-MEL-2 > 100 µM | U-251 > 100 µM | SN12C > 100 µM | CAKI-1 > 100 µM | SNB-75 > 100 µM | UO-31 > 100 µM

COc1cc([C@@H]2c3cc4c(cc3[C@@H](OC(=O)c3cccc(N)c3)C3COC(=O)[C@@H]32)OCO4)cc(OC)c1O (some centres not stated)
inactive: HCC 2998 9.93 µM | SW-620 3.33 µM | OVCAR-5 17.9 µM | MOLT-4 1.91 µM | OVCAR-3 34.6 µM | ACHN 1.96 µM | SK-MEL-2 14.9 µM | U-251 5.85 µM | SN12C 3.42 µM | CAKI-1 1.84 µM | SNB-75 5.36 µM | UO-31 5.26 µM
active: SK-MEL-28 0.91 µM | A498 0.649 µM
13.3 µM: HCT-15

CCOC(=O)C1(C)CCCCC(=O)N1 (configuration not stated)
inactive: HCC 2998 > 100 µM | SW-620 > 100 µM | SK-MEL-28 > 100 µM | OVCAR-3 > 100 µM | ACHN > 100 µM | U-251 > 100 µM | SN12C > 100 µM | CAKI-1 > 100 µM | SNB-75 > 100 µM | UO-31 > 100 µM
> 100 µM: HCT-15

CC(C)(CCl)NC(=O)c1cccc(C(=O)NC(C)(C)CCl)n1
> 100 µM: HCT-15
inactive: HCC 2998 > 100 µM | SW-620 > 100 µM | SK-MEL-28 > 100 µM | A498 > 100 µM | OVCAR-5 > 100 µM | MOLT-4 > 100 µM | OVCAR-3 > 100 µM | ACHN > 100 µM | SK-MEL-2 > 100 µM | U-251 > 100 µM | SN12C > 100 µM | CAKI-1 > 100 µM | SNB-75 92.3 µM | UO-31 > 100 µM

COC(=O)C(=O)C(C#N)c1nc2ccccc2s1 (configuration not stated)
inactive: HCC 2998 > 100 µM | SW-620 > 100 µM | SK-MEL-28 > 100 µM | A498 > 100 µM | OVCAR-5 > 100 µM | MOLT-4 60.4 µM | OVCAR-3 > 100 µM | ACHN > 100 µM | SK-MEL-2 > 100 µM | SN12C > 100 µM | CAKI-1 > 100 µM | SNB-75 42.9 µM | UO-31 39.8 µM
57 µM: HCT-15
